Measured values from US10851112B2, “Anti-HCMV virus compound” (MEDSHINE DISCOVERY INC., priority 2016, dated 2020).

How the values were obtained:
[1] = Plasma protein binding rate test, equilibrium dialysis, CD-1 mouse plasma; type: in vitro ADME; settings: mouse plasma (M), equilibrium dialysis 37° C. 4 hours, read-out: plasma protein binding PPB bound (%) (converted)
Method: (§1) Plasma Protein Binding Rate Test of the Compound
(§2) The protein binding rate of the test compound in CD-1 mice, SD rats, and human plasma was evaluated by equilibrium dialysis. The test compound was diluted into the plasma of the above three species respectively to prepare a sample with a final concentration of 2 μM. The sample was added to a 96-well equilibrium dialysis device, and dialyzed using a phosphate buffer solution at 37° C. for 4 hours. Warfarin was used as a control compound in the experiment. The concentration of the test compound and warfarin in the plasma and the buffer was determined by LC-MS/MS.

[2] = Plasma protein binding rate test, equilibrium dialysis, SD rat plasma; type: in vitro ADME; settings: rat plasma (R), equilibrium dialysis 37° C. 4 hours, read-out: plasma protein binding PPB bound (%) (converted)
Method: as §1, §2

[3] = Plasma protein binding rate test, equilibrium dialysis, human plasma; type: in vitro ADME; settings: equilibrium dialysis 37° C. 4 hours, read-out: plasma protein binding PPB bound (%) (converted)
Method: as §1, §2

[4] = system: US3-6-EGFP-HCMV-AD169 viruses; test: Fluorescence decay assay against human cytomegalovirus; type: cell-based, human cytomegalovirus (HCMV); settings: Human betaherpesvirus 5, AD169, MRC5, 240 h
Method: Fluorescence Decay Assay Against Human Cytomegalovirus
The antiviral activity of the compound against human cytomegalovirus (HCMV) was evaluated by determining the half maximal effective concentration (EC50) of the compound. The HCMV used in this assay was inserted with enhanced green fluorescent protein (EGFP) by gene recombination, so the viral replication in cells could be reflected by the expression level of GFP. The inhibitory activity of the compound on HCMV GFP expression was evaluated by determining the fluorescence intensity in the wells of different concentrations of the compound using a high content cell analysis platform Acumen eX3.
Fluorescence Decay Assay Against HCMV
MRC5 cells were inoculated into a black 96-well cell culture plate at a density of 20,000 cells per well. The plate was incubated overnight in a 37° C., 5% CO2 incubator. US3-6-EGFP-HCMV-AD169 viruses were added to the cell culture well at a certain MOI (0.003-0.1) and the plate was incubated for 3 hours in a 37° C., 5% CO2 incubator. After adsorption of viruses, the medium containing viruses was aspirated and 200 μL of cell culture medium containing different concentrations of the compound (4-fold dilution, 6 test concentrations) was added. The final concentration of DMSO in the medium was 1%. Virus control wells (with DMSO added, but no compound was added) and inhibition control wells (with a high concentration of control compound added) were set. The cell plate was incubated for 10 days in a 37° C., 5% CO2 incubator and the liquid was renewed on the 4th day and 7th day. After 10 days of culture, the fluorescence intensity was determined using a high content cell analysis platform Acumen eX3 (TTP LabTech). The original data was used for calculating the antiviral activity of the compound.
The inhibition % was imported into GraphPad Prism software for data processing to give a corresponding dose-response curve for the compound and the EC50 of the test compound was obtained.

[5] = system: HCMV viruses (strain: GFP-AD169); test: Human cytomegalovirus (HCMV) transplantation model in mouse; type: in vivo; settings: NOD SCID mice, oral 8 mg/kg once a day, 1st to 9th day, plaque detection in gelatin sponge
Method: Human Cytomegalovirus (HCMV) Transplantation Model in Mouse
A gelatin sponge containing HCMV was transplanted into mice. After 9 days of continuous administration, the gelatin sponge was collected for plaque detection. The anti-HCMV effect of the compound in the model was evaluated by determining the amount of HCMV in the gelatin sponge.
The animals selected for the experiment were NOD SCID mice (purchased from Shanghai Slac Laboratory Animal Co., Ltd.), 5 weeks, male, 5 animals per group. The day when the mice were transplanted with gelatin sponge was set to be day 0. Human foreskin fibroblasts (HFF, MOI=0.03) were previously infected with HCMV viruses (strain: GFP-AD169). The HMV cells infected with HCMV were added to a 1 cm^2 gelatin sponge for incubation. Animals were anesthetized by intraperitoneal injection of pentobarbital sodium at a dose of 75 mg/kg (10 mL/kg). After the animals entered deep anesthesia, the prepared gelatin sponge was subcutaneously transplanted into the back of the mice. From 1st day to 9th day, the mice were orally administered with the test compound at a dose of 8 mg/kg (10 mL/kg) once a day. At 4 hours after the administration on the 9th day, the gelatin sponge was taken out and digested. The plaque was detected.

## COc1cccc(N2CCN(C3=Nc4ccsc4[C@H](CC(=O)O)N3c3cc(C(F)(F)F)ccc3OC)CC2)c1 (single isomer, unassigned) [WX-088]
[1]
  fraction unbound at 4 h, 2 μM: 0.022
[2]
  fraction unbound at 4 h, 2 μM: 0.028
[3]
  fraction unbound at 4 h, 2 μM: 0.024
[4]
  EC50: 2 nM

## COc1cc(N2CCN(C3=Nc4ccsc4[C@H](CC(=O)O)N3c3cc(C(F)(F)F)ccc3OC)CC2)ccn1 (single isomer, unassigned) [WX-109]
[1]
  fraction unbound at 4 h, 2 μM: 0.055
[2]
  fraction unbound at 4 h, 2 μM: 0.108
[3]
  fraction unbound at 4 h, 2 μM: 0.097
[4]
  EC50: 4 nM

## COc1cccc(N2CCN(C3=Nc4c(csc4F)[C@H](CC(=O)O)N3c3cc(C(F)(F)F)ccc3OC)C[C@H]2C)c1 (single isomer, unassigned) [WX-132]
[1]
  fraction unbound at 4 h, 2 μM: 0.011
[2]
  fraction unbound at 4 h, 2 μM: 0.017
[3]
  fraction unbound at 4 h, 2 μM: 0.022
[4]
  EC50: 0.15 nM

## COc1cccc(N2CCN(C3=Nc4ccsc4[C@H](CC(=O)O)N3c3cc(C(F)(F)F)ccc3OC)C[C@H]2C)c1 (single isomer, unassigned) [WX-136]
[5]
  decrease in HCMV viral load: 2.33 log PFU/mL
[4]
  EC50: 0.17 nM

## COc1ccnc(N2CCN(C3=Nc4ccsc4[C@H](CC(=O)O)N3c3cc(C(F)(F)F)ccc3OC)C[C@H]2C)c1 (single isomer, unassigned) [WX-139]
[1]
  fraction unbound at 4 h, 2 μM: 0.014
[2]
  fraction unbound at 4 h, 2 μM: 0.041
[3]
  fraction unbound at 4 h, 2 μM: 0.06
[4]
  EC50: 3 nM

## COc1cc(N2CCN(C3=Nc4ccsc4[C@H](CC(=O)O)N3c3cc(C(F)(F)F)ccc3OC)C[C@H]2C)ccn1 (single isomer, unassigned) [WX-141]
[5]
  decrease in HCMV viral load: 2.38 log PFU/mL
[1]
  fraction unbound at 4 h, 2 μM: 0.017
[2]
  fraction unbound at 4 h, 2 μM: 0.061
[3]
  fraction unbound at 4 h, 2 μM: 0.06
[4]
  EC50: 0.2 nM

## COc1cc(N2CCN(C3=Nc4ccsc4[C@H](CC(=O)O)N3c3cc(C(F)(F)F)ccc3OC)C[C@H]2C)ncn1 (single isomer, unassigned) [WX-143]
[1]
  fraction unbound at 4 h, 2 μM: 0.015
[2]
  fraction unbound at 4 h, 2 μM: 0.066
[3]
  fraction unbound at 4 h, 2 μM: 0.069
[4]
  EC50: 0.89 nM

## COc1ccnc(N2CCN(C3=Nc4c(csc4F)[C@H](CC(=O)O)N3c3cc(C(F)(F)F)ccc3OC)C[C@H]2C)c1 (single isomer, unassigned) [WX-145]
[1]
  fraction unbound at 4 h, 2 μM: 0.001
[2]
  fraction unbound at 4 h, 2 μM: 0.014
[3]
  fraction unbound at 4 h, 2 μM: 0.023
[4]
  EC50: 2 nM

## COc1cc(N2CCN(C3=Nc4c(csc4F)[C@H](CC(=O)O)N3c3cc(C(F)(F)F)ccc3OC)C[C@H]2C)ccn1 (single isomer, unassigned) [WX-147]
[1]
  fraction unbound at 4 h, 2 μM: 0.002
[2]
  fraction unbound at 4 h, 2 μM: 0.014
[3]
  fraction unbound at 4 h, 2 μM: 0.018
[4]
  EC50: 0.17 nM

## COc1cc(N2CCN(C3=Nc4c(csc4F)[C@H](CC(=O)O)N3c3cc(C(F)(F)F)ccc3OC)C[C@H]2C)ncn1 (single isomer, unassigned) [WX-149]
[1]
  fraction unbound at 4 h, 2 μM: 0.002
[2]
  fraction unbound at 4 h, 2 μM: 0.017
[3]
  fraction unbound at 4 h, 2 μM: 0.024
[4]
  EC50: 0.67 nM

## COc1cc(N2CCN(C3=Nc4cscc4[C@H](CC(=O)O)N3c3cc(C(F)(F)F)ccc3OC)C[C@H]2C)ccn1 (single isomer, unassigned) [WX-151]
[5]
  decrease in HCMV viral load: 2.30 log PFU/mL
[1]
  fraction unbound at 4 h, 2 μM: 0.011
[2]
  fraction unbound at 4 h, 2 μM: 0.05
[3]
  fraction unbound at 4 h, 2 μM: 0.047
[4]
  EC50: 0.503 nM

## COc1cc(N2CCN(C3=Nc4c(C)csc4[C@H](CC(=O)O)N3c3cc(C(F)(F)F)ccc3OC)C[C@H]2C)ccn1 (single isomer, unassigned) [WX-153]
[1]
  fraction unbound at 4 h, 2 μM: 0.011
[2]
  fraction unbound at 4 h, 2 μM: 0.02
[3]
  fraction unbound at 4 h, 2 μM: 0.019
[4]
  EC50: 0.26 nM

## COc1cc(N2[C@H](C)CN(C3=Nc4ccsc4[C@H](CC(=O)O)N3c3cc(C(F)(F)F)ccc3OC)C[C@@H]2C)ccn1 (single isomer, unassigned) [WX-161]
[1]
  fraction unbound at 4 h, 2 μM: 0.004
[2]
  fraction unbound at 4 h, 2 μM: 0.023
[3]
  fraction unbound at 4 h, 2 μM: 0.02
[4]
  EC50: 0.317 nM
